ChEMBL document CHEMBL1201861, “Genomics of Drug Sensitity in Cancer screening data, Wellcome Trust Sanger Institute”
pIC50: −log10 of the molar value.

What was measured:
Assay in all cases: cells
Details in all cases: Homo sapiens
COLO-741 = assay type: functional, cell-based
Description: SANGER: Inhibition of human COLO-741 cell growth in a cell viability assay.

COLO-824 = assay type: functional, cell-based
Description: SANGER: Inhibition of human COLO-824 cell growth in a cell viability assay.

DMS-79 = assay type: functional, cell-based
Description: SANGER: Inhibition of human DMS-79 cell growth in a cell viability assay.

DU-4475 = assay type: functional, cell-based
Description: SANGER: Inhibition of human DU-4475 cell growth in a cell viability assay.

EB-3 = assay type: functional, cell-based
Description: SANGER: Inhibition of human EB-3 cell growth in a cell viability assay.

EC-GI-10 = assay type: functional, cell-based
Description: SANGER: Inhibition of human EC-GI-10 cell growth in a cell viability assay.

ES4 = assay type: functional, cell-based
Description: SANGER: Inhibition of human ES4 cell growth in a cell viability assay.

ES6 = assay type: functional, cell-based
Description: SANGER: Inhibition of human ES6 cell growth in a cell viability assay.

ETK-1 = assay type: functional, cell-based
Description: SANGER: Inhibition of human ETK-1 cell growth in a cell viability assay.

EW-11 = assay type: functional, cell-based
Description: SANGER: Inhibition of human EW-11 cell growth in a cell viability assay.

EW-13 = assay type: functional, cell-based
Description: SANGER: Inhibition of human EW-13 cell growth in a cell viability assay.

EW-16 = assay type: functional, cell-based
Description: SANGER: Inhibition of human EW-16 cell growth in a cell viability assay.

EW-24 = assay type: functional, cell-based
Description: SANGER: Inhibition of human EW-24 cell growth in a cell viability assay.

EW-3 = assay type: functional, cell-based
Description: SANGER: Inhibition of human EW-3 cell growth in a cell viability assay.

FTC-133 = assay type: functional, cell-based
GI-1 = assay type: functional, cell-based
Description: SANGER: Inhibition of human GI-1 cell growth in a cell viability assay.

HCE-T = assay type: functional, cell-based
Description: SANGER: Inhibition of human HCE-T cell growth in a cell viability assay.

HEL = assay type: functional, cell-based
Description: SANGER: Inhibition of human HEL cell growth in a cell viability assay.

HT1197 = assay type: functional, cell-based, HT-1197
Description: SANGER: Inhibition of human HT-1197 cell growth in a cell viability assay.

KE-37 = assay type: functional, cell-based
Description: SANGER: Inhibition of human KE-37 cell growth in a cell viability assay.

KURAMOCHI = assay type: functional, cell-based
Description: SANGER: Inhibition of human KURAMOCHI cell growth in a cell viability assay.

KYSE-150 cell line = assay type: functional, cell-based
Description: SANGER: Inhibition of human KYSE-150 cell growth in a cell viability assay.

LB373-MEL-D = assay type: functional, cell-based
Description: SANGER: Inhibition of human LB373-MEL-D cell growth in a cell viability assay.

LNCaP-Clone-FGC = assay type: functional, cell-based
Description: SANGER: Inhibition of human LNCaP-Clone-FGC cell growth in a cell viability assay.

LS-123 = assay type: functional, cell-based
Description: SANGER: Inhibition of human LS-123 cell growth in a cell viability assay.

LS-513 = assay type: functional, cell-based
Description: SANGER: Inhibition of human LS-513 cell growth in a cell viability assay.

LU-139 = assay type: functional, cell-based
Description: SANGER: Inhibition of human LU-139 cell growth in a cell viability assay.

MFH-ino = assay type: functional, cell-based
Description: SANGER: Inhibition of human MFH-ino cell growth in a cell viability assay.

MIA PaCa-2 = assay type: functional, cell-based
Description: SANGER: Inhibition of human MIA-PaCa-2 cell growth in a cell viability assay.

MKN-1 = assay type: functional, cell-based
Description: SANGER: Inhibition of human MKN1 cell growth in a cell viability assay.

ML-2 = assay type: functional, cell-based
Description: SANGER: Inhibition of human ML-2 cell growth in a cell viability assay.

MN-60 = assay type: functional, cell-based
Description: SANGER: Inhibition of human MN-60 cell growth in a cell viability assay.

MPP-89 = assay type: functional, cell-based
Description: SANGER: Inhibition of human MPP-89 cell growth in a cell viability assay.

MZ1-PC = assay type: functional, cell-based
Description: SANGER: Inhibition of human MZ1-PC cell growth in a cell viability assay.

MeWo = assay type: functional, cell-based
Description: SANGER: Inhibition of human Mewo cell growth in a cell viability assay.

NB5 = assay type: functional, cell-based
Description: SANGER: Inhibition of human NB5 cell growth in a cell viability assay.

NCI-H1299 = assay type: functional, cell-based
Description: SANGER: Inhibition of human NCI-H1299 cell growth in a cell viability assay.

NCI-H1304 = assay type: functional, cell-based
Description: SANGER: Inhibition of human NCI-H1304 cell growth in a cell viability assay.

NCI-H1648 = assay type: functional, cell-based
Description: SANGER: Inhibition of human NCI-H1648 cell growth in a cell viability assay.

NCI-H446 = assay type: functional, cell-based
Description: SANGER: Inhibition of human NCI-H446 cell growth in a cell viability assay.

SNU-5 = assay type: functional, cell-based
Description: SANGER: Inhibition of human NCI-SNU-5 cell growth in a cell viability assay.

NOMO-1 = assay type: functional, cell-based
Description: SANGER: Inhibition of human NOMO-1 cell growth in a cell viability assay.

OCI-AML2 = assay type: functional, cell-based
Description: SANGER: Inhibition of human OCI-AML2 cell growth in a cell viability assay.

OMC-1 = assay type: functional, cell-based
Description: SANGER: Inhibition of human OMC-1 cell growth in a cell viability assay.

OS-RC-2 = assay type: functional, cell-based
Description: SANGER: Inhibition of human OS-RC-2 cell growth in a cell viability assay.

OVCAR-5 = assay type: functional, cell-based
Description: SANGER: Inhibition of human OVCAR-5 cell growth in a cell viability assay.

RS4-11 = assay type: functional, cell-based
Description: SANGER: Inhibition of human RS4-11 cell growth in a cell viability assay.

SF-268 = assay type: functional, cell-based
Description: SANGER: Inhibition of human SF268 cell growth in a cell viability assay.

SK-MEL-1 = assay type: functional, cell-based
Description: SANGER: Inhibition of human SK-MEL-1 cell growth in a cell viability assay.

SK-OV-3 = assay type: functional, cell-based
Description: SANGER: Inhibition of human SK-OV-3 cell growth in a cell viability assay.

SK-UT-1 = assay type: functional, cell-based
Description: SANGER: Inhibition of human SK-UT-1 cell growth in a cell viability assay.

SW 954 = assay type: functional, cell-based
Description: SANGER: Inhibition of human SW954 cell growth in a cell viability assay.

A498 = assay type: functional, cell-based
Description: SANGER: Inhibition of human A498 cell growth in a cell viability assay.

AGS = assay type: functional, cell-based
Description: SANGER: Inhibition of human AGS cell growth in a cell viability assay.

ATN-1 = assay type: functional, cell-based
Description: SANGER: Inhibition of human ATN-1 cell growth in a cell viability assay.

BB49-HNC = assay type: functional, cell-based
Description: SANGER: Inhibition of human BB49-HNC cell growth in a cell viability assay.

BFTC-909 = assay type: functional, cell-based
Description: SANGER: Inhibition of human BFTC-909 cell growth in a cell viability assay.

BT-474 = assay type: functional, cell-based
Description: SANGER: Inhibition of human BT-474 cell growth in a cell viability assay.

C2BBe1 = assay type: functional, cell-based
Description: SANGER: Inhibition of human C2BBe1 cell growth in a cell viability assay.

C8166 = assay type: functional, cell-based
Description: SANGER: Inhibition of human C8166 cell growth in a cell viability assay.

TE-6 = assay type: functional, cell-based
Description: SANGER: Inhibition of human TE-6 cell growth in a cell viability assay.

TK-10 = assay type: functional, cell-based
Description: SANGER: Inhibition of human TK10 cell growth in a cell viability assay.

VA-ES-BJ = assay type: functional, cell-based
Description: SANGER: Inhibition of human VA-ES-BJ cell growth in a cell viability assay.

no-10 = assay type: functional, cell-based
Description: SANGER: Inhibition of human no-10 cell growth in a cell viability assay.

no-11 = assay type: functional, cell-based
Description: SANGER: Inhibition of human no-11 cell growth in a cell viability assay.

CCRF-CEM = assay type: functional, cell-based
Description: SANGER: Inhibition of human CCRF-CEM cell growth in a cell viability assay.

## N#C/C(=C1/Nc2ccccc2S1)c1ccnc(NCCc2cccnc2)n1
COLO-741
  pIC50: < 5.10
COLO-824
  pIC50: < 5.10
DMS-79
  pIC50: < 5.10
DU-4475
  pIC50: < 5.10
EB-3
  pIC50: < 5.10
EC-GI-10
  pIC50: < 5.10
ES4
  pIC50: < 5.10
ES6
  pIC50: 5.33
ETK-1
  pIC50: < 5.10
EW-11
  pIC50: < 5.10
EW-13
  pIC50: < 5.10
EW-16
  pIC50: 5.30
EW-24
  pIC50: < 5.10
EW-3
  pIC50: < 5.10
FTC-133
  pIC50: < 5.10
GI-1
  pIC50: 5.43
HCE-T
  pIC50: 5.13
HEL
  pIC50: 5.15
HT1197
  pIC50: < 5.10
KE-37
  pIC50: < 5.10
KURAMOCHI
  pIC50: 5.46
KYSE-150 cell line
  pIC50: < 5.10
LB373-MEL-D
  pIC50: < 5.10
LNCaP-Clone-FGC
  pIC50: < 5.10
LS-123
  pIC50: < 5.10
LS-513
  pIC50: < 5.10
LU-139
  pIC50: < 5.10
MFH-ino
  pIC50: < 5.10
MIA PaCa-2
  pIC50: 6.01
MKN-1
  pIC50: 5.54
ML-2
  pIC50: < 5.10
MN-60
  pIC50: < 5.10
MPP-89
  pIC50: 5.28
MZ1-PC
  pIC50: < 5.10
MeWo
  pIC50: < 5.10
NB5
  pIC50: < 5.10
NCI-H1299
  pIC50: 5.32
NCI-H1304
  pIC50: < 5.10
NCI-H1648
  pIC50: < 5.10
NCI-H446
  pIC50: < 5.10
SNU-5
  pIC50: < 5.10
NOMO-1
  pIC50: < 5.10
OCI-AML2
  pIC50: 5.33
OMC-1
  pIC50: < 5.10
OS-RC-2
  pIC50: < 5.10
OVCAR-5
  pIC50: < 5.10
RS4-11
  pIC50: 5.41
SF-268
  pIC50: < 5.10
SK-MEL-1
  pIC50: < 5.10
SK-OV-3
  pIC50: < 5.10
SK-UT-1
  pIC50: 5.12
SW 954
  pIC50: < 5.10
A498
  pIC50: < 5.10
AGS
  pIC50: < 5.10
ATN-1
  pIC50: < 5.10
BB49-HNC
  pIC50: 5.86
BFTC-909
  pIC50: < 5.10
BT-474
  pIC50: < 5.10
C2BBe1
  pIC50: < 5.10
C8166
  pIC50: 5.35
TE-6
  pIC50: < 5.10
TK-10
  pIC50: 5.43
VA-ES-BJ
  pIC50: < 5.10
no-10
  pIC50: < 5.10
no-11
  pIC50: < 5.10
CCRF-CEM
  pIC50: < 5.10

## Cc1[nH]c(/C=C2\C(=O)Nc3ccc(S(=O)(=O)Cc4c(Cl)cccc4Cl)cc32)c(C)c1C(=O)N1CCC[C@@H]1CN1CCCC1 [PHA-665752]
COLO-824
  pIC50: < 5.70
DMS-79
  pIC50: < 5.70
DU-4475
  pIC50: < 5.70
EB-3
  pIC50: < 5.70
EC-GI-10
  pIC50: < 5.70
ES4
  pIC50: < 5.70
ES6
  pIC50: < 5.70
ETK-1
  pIC50: < 5.70
EW-11
  pIC50: < 5.70
EW-13
  pIC50: < 5.70
EW-16
  pIC50: < 5.70
EW-24
  pIC50: < 5.70
EW-3
  pIC50: < 5.70
GI-1
  pIC50: < 5.70
HCE-T
  pIC50: < 5.70
HEL
  pIC50: < 5.70
KE-37
  pIC50: < 5.70
KURAMOCHI
  pIC50: < 5.70
LB373-MEL-D
  pIC50: < 5.70
LNCaP-Clone-FGC
  pIC50: < 5.70
LS-123
  pIC50: < 5.70
LS-513
  pIC50: < 5.70
LU-139
  pIC50: < 5.70
MFH-ino
  pIC50: < 5.70
ML-2
  pIC50: < 5.70
MN-60
  pIC50: < 5.70
MPP-89
  pIC50: < 5.70
MZ1-PC
  pIC50: < 5.70
NB5
  pIC50: < 5.70
NCI-H1299
  pIC50: < 5.70
NCI-H1304
  pIC50: < 5.70
NCI-H1648
  pIC50: < 5.70
NCI-H446
  pIC50: < 5.70
SNU-5
  pIC50: 6.91
NOMO-1
  pIC50: < 5.70
OCI-AML2
  pIC50: < 5.70
OMC-1
  pIC50: < 5.70
OS-RC-2
  pIC50: < 5.70
RS4-11
  pIC50: < 5.70
SF-268
  pIC50: < 5.70
SK-MEL-1
  pIC50: < 5.70
SK-UT-1
  pIC50: < 5.70
SW 954
  pIC50: < 5.70
A498
  pIC50: < 5.70
ATN-1
  pIC50: < 5.70
BB49-HNC
  pIC50: < 5.70
BT-474
  pIC50: < 5.70
C2BBe1
  pIC50: < 5.70
C8166
  pIC50: < 5.70
TE-6
  pIC50: < 5.70
TK-10
  pIC50: < 5.70
VA-ES-BJ
  pIC50: < 5.70
no-10
  pIC50: < 5.70
no-11
  pIC50: < 5.70
CCRF-CEM
  pIC50: < 5.70
